pIC50, pKi: −log10 of the molar value. Like-named read-outs stand apart in the source and are kept apart here.
Experiments:
[1] = target: T1, Fabrazyme = commercial recombinant lysosomal α-galactosidase (GH27) (Homo sapiens, UniProt P06280); conditions: read-out: Ki Fabrazyme (α-Gal) (GH27); cited from earlier work
T1 construct: purchased
T1 sequence (P06280 32-429): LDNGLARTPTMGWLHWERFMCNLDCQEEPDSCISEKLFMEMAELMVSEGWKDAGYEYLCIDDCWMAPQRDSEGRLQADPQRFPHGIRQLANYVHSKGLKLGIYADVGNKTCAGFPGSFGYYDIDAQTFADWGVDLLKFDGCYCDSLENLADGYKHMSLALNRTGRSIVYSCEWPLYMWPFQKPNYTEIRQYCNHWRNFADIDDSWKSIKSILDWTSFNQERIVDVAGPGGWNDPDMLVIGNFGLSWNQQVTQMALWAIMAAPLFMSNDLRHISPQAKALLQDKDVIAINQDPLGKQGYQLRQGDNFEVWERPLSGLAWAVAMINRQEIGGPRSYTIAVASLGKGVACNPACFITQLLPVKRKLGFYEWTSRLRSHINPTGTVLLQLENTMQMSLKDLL

[2] = target: α-glucosidase from S. cerevisiae (GH13); conditions: read-out: Ki S. cer. (α-Glc) (GH13); cited from earlier work
[3] = target: T2, human lysosomal acid β-galactosidase (GH35) (Homo sapiens, UniProt P16278); conditions: read-out: β-Gal human lys. (GH35); cited from earlier work
T2 construct: Activity was measured in normal fibroblasts; endogenous in cells; host or cells: normal human skin fibroblasts (homogenate)
T2 sequence (P16278 29-677): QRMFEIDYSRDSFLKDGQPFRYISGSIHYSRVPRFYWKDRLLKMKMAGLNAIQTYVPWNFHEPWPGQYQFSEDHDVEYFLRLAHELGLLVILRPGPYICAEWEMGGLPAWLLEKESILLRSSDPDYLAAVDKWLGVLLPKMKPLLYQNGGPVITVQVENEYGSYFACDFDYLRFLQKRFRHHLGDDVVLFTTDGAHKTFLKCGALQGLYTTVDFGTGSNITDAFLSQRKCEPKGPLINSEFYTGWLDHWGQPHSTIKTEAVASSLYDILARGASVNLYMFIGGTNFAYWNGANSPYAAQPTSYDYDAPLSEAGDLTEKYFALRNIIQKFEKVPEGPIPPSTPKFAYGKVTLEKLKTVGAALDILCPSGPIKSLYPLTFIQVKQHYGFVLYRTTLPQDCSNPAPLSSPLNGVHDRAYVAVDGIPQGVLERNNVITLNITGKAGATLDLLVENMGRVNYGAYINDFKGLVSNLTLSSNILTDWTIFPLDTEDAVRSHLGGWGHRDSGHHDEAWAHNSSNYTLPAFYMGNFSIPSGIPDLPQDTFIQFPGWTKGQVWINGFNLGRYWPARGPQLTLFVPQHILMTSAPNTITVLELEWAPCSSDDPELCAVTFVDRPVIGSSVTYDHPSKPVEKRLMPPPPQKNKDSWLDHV

[4] = target: α-glucosidase from S. cerevisiae (GH13); test: Ki determination, S. cerevisiae α-glucosidase; type: biochemical; conditions: 37 °C, pH 7.0, substrate pNP α-Glc; read-out: Ki S. cer. (α-Glc) (GH13)
Description: Kinetic studies were performed at 37 °C in an appropriate buffer (specific conditions depicted below). In a typical assay, the enzyme was incubated with different inhibitor concentrations for up to 5 min before initiating the reaction by the addition of substrate. The initial reaction rate was measured by monitoring the increase in absorbance at 400 nm for up to ten minutes using a Cary4000 (Varian, Palo Alto, CA, USA). Ki determinations were performed using at least two different substrate concentrations. For each inhibitor, a range of four to six inhibitor concentrations bracketing the ultimately determined Ki value was used for each substrate concentration. Dixon plots (1/v vs. [I]) were constructed to validate the use of competitive inhibition model. The data were then fit using non-linear regression analysis with Grafit 7.0 [Erithacus Software, UK]. […] S. cerevisiae α-Glucosidase: 50 mM sodium phosphate buffer (pH 7.0).

[5] = target: T3, recombinant human lysosomal β-glucocerebrosidase (GCase, GH30) (Homo sapiens, UniProt P04062); test: Ki determination, GCase (β-glucocerebrosidase); type: biochemical; conditions: 37 °C, pH 7, substrate 2,4-DNP β-Glc
T3 sequence (P04062 40-536): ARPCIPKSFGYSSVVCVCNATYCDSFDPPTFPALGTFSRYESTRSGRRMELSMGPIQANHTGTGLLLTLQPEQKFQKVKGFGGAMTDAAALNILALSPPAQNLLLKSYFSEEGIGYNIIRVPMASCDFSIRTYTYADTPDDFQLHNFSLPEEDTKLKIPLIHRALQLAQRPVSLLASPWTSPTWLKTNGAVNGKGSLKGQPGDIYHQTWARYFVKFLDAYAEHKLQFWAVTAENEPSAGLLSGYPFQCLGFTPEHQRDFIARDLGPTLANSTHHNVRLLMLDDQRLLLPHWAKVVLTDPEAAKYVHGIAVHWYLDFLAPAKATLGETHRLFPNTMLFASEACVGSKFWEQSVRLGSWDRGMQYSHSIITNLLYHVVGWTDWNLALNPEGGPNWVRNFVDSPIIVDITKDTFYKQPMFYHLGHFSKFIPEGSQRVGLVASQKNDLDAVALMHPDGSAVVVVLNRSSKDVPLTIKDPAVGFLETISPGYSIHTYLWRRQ
Description: Kinetic studies were performed at 37 °C in an appropriate buffer (specific conditions depicted below). In a typical assay, the enzyme was incubated with different inhibitor concentrations for up to 5 min before initiating the reaction by the addition of substrate. The initial reaction rate was measured by monitoring the increase in absorbance at 400 nm for up to ten minutes using a Cary4000 (Varian, Palo Alto, CA, USA). Ki determinations were performed using at least two different substrate concentrations. For each inhibitor, a range of four to six inhibitor concentrations bracketing the ultimately determined Ki value was used for each substrate concentration. Dixon plots (1/v vs. [I]) were constructed to validate the use of competitive inhibition model. The data were then fit using non-linear regression analysis with Grafit 7.0 [Erithacus Software, UK].
n.i. stands for no inhibition or weak inhibition with an estimated Ki value higher than 1 mM.
GCase (β-glucocerebrosidase): 20 mM sodium citrate, 50 mM sodium phosphate, 1.0 mM tetrasodium EDTA, 0.25% v/v Triton X-100® and 0.25% w/v taurocholic acid buffer (pH 7). Substrate: 2,4-DNP β-Glc, Km = 2.7 mM.

**Q.** Which results are given for CN(C)c1cccc2c(S(=O)(=O)NCCCCCCN[C@H]3[C@H](O)[C@@H](O)[C@@H](O)[C@H]3CO)cccc12 [Compound 17]?
**A.** pKi [1]: 3.62; pKi [2]: < 3.00; pIC50 [3]: 6.40

**Q.** What does the source list for CN(C)c1cccc2c(S(=O)(=O)NCCCCCCN[C@H]3C[C@@H](O)[C@@H](O)[C@H]3CO)cccc12 [Compound 31, (1R,2S,3R,4S)-3-Hydroxymethyl-4-(6′-dansylaminohexylamino)cyclopentane-1,2-diol]?
**A.** pKi [4]: < 3.00; pKi [5]: 4.65

**Q.** With CN(C)c1cccc2c(S(=O)(=O)NCCCCCC[C@@H]3NC[C@@H](O)[C@@H](O)[C@H]3CO)cccc12 [Compound 14] as the compound, how does the pKi [1] read?
**A.** < 3.00

**Q.** And the pKi [2]?
**A.** < 3.00

**Q.** What about the pIC50 [3] of the same compound?
**A.** 6.42

**Q.** With CN(C)c1cccc2c(S(=O)(=O)NCCCCCC[C@H]3NC[C@@H](O)[C@@H](O)[C@H]3CO)cccc12 [Compound 22] as the compound, how does the pKi [4] read?
**A.** < 3.00

**Q.** What about the pKi [5] of the same compound?
**A.** 8.52

**Q.** With CN(C)c1cccc2c(S(=O)(=O)NCCCCCCN[C@H]3[C@H](F)[C@@H](O)[C@@H](O)[C@H]3CO)cccc12 [Compound 37, (1S,2S,3S,4R,5R)-4-(6′-Dansylaminohexyl)amino-3-fluoro-5-hydroxymethylcyclopentane-1,2-diol] as the compound, how does the pKi [4] read?
**A.** 4.65

**Q.** And the pKi [5]?
**A.** 5.52

**Q.** Which results are given for CCCCCCCCN[C@H]1[C@H](O)[C@@H](O)[C@@H](O)[C@H]1CO [Compound 16]?
**A.** pKi [4]: < 3.00; pKi [5]: 7.19

**Q.** With CCCCCCCCNC1C=C(CO)C(O)C(O)C1O (stereo not drawn) [Compound 1, N-octyl-epi-valienamine] as the compound, how does the pKi [4] read?
**A.** < 3.00

**Q.** What about the pKi [5] of the same compound?
**A.** 4.08

Source: publication PMC7504770, “Mechanistic Insights into the Chaperoning of Human Lysosomal-Galactosidase Activity: Highly Functionalized Aminocyclopentanes and C-5a-Substituted Derivatives of 4-epi-Isofagomine” (Molecules, 2020)
